# Columns and labels:
# Test in all cases: relative viability (nuclei count vs DMSO), 5 days (fraction); higher = more cells survive
# [1] = compound: CC1=C(C=CC(=C1)[N+](=O)[O-])NS(=O)(=O)C2=C(C=CC(=C2)Cl)Cl [FH535]
# Outline: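 Viability was read as treated-well nuclei divided by vehicle-well nuclei, using the median across plates. Lung cancer cell lines in 1536-well plates were kept overnight at 37 °C, pinned with five √10-spaced library-drug doses, and after 5 days were Hoechst-stained, imaged at 4× and counted in MetaXpress. Plates passed only with control CV below 25% and at least one doubling.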
# [2] = compound: CC1=C(C=CC(=C1)[N+](=O)[O-])NS(=O)(=O)C2=C(C=CC(=C2)Cl)Cl [FH535] + Nc1ncn([C@H]2C[C@H](O)[C@@H](CO)O2)c(=O)n1 [Decitabine] (partner 2 µM)
# Outline: (§1)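 Lung cancer cell lines in 1536-well plates got either a single drug or a fixed anchor-drug dose together with five library-drug doses (not always all listed) in √10 steps, by pin tool, on the day after seeding. Nuclei were counted after 5 days, and relative viability is the treated-to-vehicle ratio of nuclei counts. Values are medians of duplicate plates.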
# [3] = compound: CC1=C(C=CC(=C1)[N+](=O)[O-])NS(=O)(=O)C2=C(C=CC(=C2)Cl)Cl [FH535] + COc1cccc2cc(-c3nc([C@H]4CC[C@H](C(=O)O)CC4)n4ncnc(N)c34)[nH]c12 [OSI-027] (partner 0.5 µM)
# Outline: as §1
# [4] = compound: CC1=C(C=CC(=C1)[N+](=O)[O-])NS(=O)(=O)C2=C(C=CC(=C2)Cl)Cl [FH535] + CS(=O)(=O)N1CCN(Cc2cc3nc(-c4cccc5[nH]ncc45)nc(N4CCOCC4)c3s2)CC1 [Pictilisib] (partner 1 µM)
# Outline: as §1
# [5] = compound: CC1=C(C=CC(=C1)[N+](=O)[O-])NS(=O)(=O)C2=C(C=CC(=C2)Cl)Cl [FH535] + CC1(C)CCC(c2ccc(Cl)cc2)=C(CN2CCN(c3ccc(C(=O)NS(=O)(=O)c4ccc(N[C@H](CCN5CCOCC5)CSc5ccccc5)c(S(=O)(=O)C(F)(F)F)c4)cc3)CC2)C1 [Navitoclax] (partner 0.5 µM)
# Outline: as §1
Cell Line,relative viability ([1]; 0.04 µM),relative viability ([1]; 0.1265 µM),relative viability ([1]; 0.4 µM),relative viability ([1]; 1.265 µM),relative viability ([2]; first compound 0.04 µM),relative viability ([2]; first compound 0.1265 µM),relative viability ([2]; first compound 0.4 µM),relative viability ([2]; first compound 1.265 µM),relative viability ([3]; first compound 0.04 µM),relative viability ([3]; first compound 0.1265 µM),relative viability ([3]; first compound 0.4 µM),relative viability ([3]; first compound 1.265 µM),relative viability ([4]; first compound 0.04 µM),relative viability ([4]; first compound 0.1265 µM),relative viability ([4]; first compound 0.4 µM),relative viability ([4]; first compound 1.265 µM),relative viability ([5]; first compound 0.04 µM),relative viability ([5]; first compound 0.1265 µM),relative viability ([5]; first compound 0.4 µM),relative viability ([5]; first compound 1.265 µM)
LK-2,0.919,0.983,0.996,1.17,0.254,0.26,0.298,0.286,0.181,0.208,0.2,0.155,0.546,0.573,0.58,0.489,0.788,0.855,1,1.06
LOU-NH91,0.936,1.07,0.742,0.472,0.759,0.823,0.788,0.64,0.708,0.815,0.557,0.397,0.471,0.554,0.48,0.339,0.602,0.736,0.695,0.233
LU99A,0.812,0.973,0.854,0.811,0.789,0.944,0.841,0.794,0.241,0.304,0.284,0.279,0.291,0.324,0.335,0.295,0.716,0.667,0.844,0.844
LXF-289,0.99,0.989,0.913,0.851,0.357,0.422,0.369,0.336,0.735,0.809,0.688,0.69,0.69,0.793,0.758,0.681,0.996,0.936,0.945,0.645
NCI-H23,0.635,1.01,0.967,0.687,0.299,0.31,0.347,0.318,0.408,0.471,0.642,0.546,–,0.41,0.483,0.508,–,0.821,0.818,0.703
NCI-H322M,0.92,0.93,0.937,0.761,0.677,0.711,0.694,0.682,0.543,0.54,0.577,0.394,0.471,0.539,0.436,0.497,1.13,1.39,1.19,1.2
NCI-H441,0.929,1.14,1.14,0.84,0.221,0.263,0.265,0.252,0.529,0.559,0.508,0.527,0.434,0.469,0.443,0.423,0.669,0.773,0.502,0.365
NCI-H460,0.997,1.03,0.935,0.699,0.442,0.608,0.493,0.347,0.612,0.754,0.542,0.375,0.344,0.338,0.335,0.329,1.15,1.25,1.11,0.696
NCI-H520,0.963,1.04,0.934,0.915,0.462,0.488,0.521,0.355,0.199,0.286,0.296,0.192,0.274,0.201,0.303,0.279,1.11,1.09,1.06,0.882
NCI-H596,0.926,0.865,0.975,0.908,0.983,1.06,1,0.976,0.697,0.551,0.55,0.652,0.347,0.385,0.39,0.344,0.856,0.967,1.05,0.874
NCI-H647,0.872,1.05,0.906,0.801,0.311,0.362,0.364,0.334,0.486,0.809,0.673,0.543,0.435,0.458,0.434,0.362,1.06,1.2,1.1,0.919
NCI-H727,0.699,0.814,0.706,0.797,0.845,0.945,0.851,0.877,0.554,0.498,0.545,0.478,0.482,0.315,0.401,0.366,0.479,0.39,0.369,0.381
NCI-H838,0.962,0.96,0.851,0.777,0.39,0.498,0.387,0.345,0.388,0.423,0.388,0.328,0.462,0.427,0.379,0.387,1.16,1.24,1.07,0.969
NCI-H1355,0.942,0.981,0.917,0.681,0.334,0.325,0.368,0.36,0.366,0.466,0.349,0.303,0.362,0.503,0.378,0.33,0.862,0.998,0.88,0.66
NCI-H1395,0.683,0.929,0.909,0.62,0.632,0.685,0.702,0.653,0.581,0.613,0.61,0.476,0.583,0.645,0.64,0.541,1,1.23,1.06,0.895
NCI-H1437,0.976,0.934,0.731,0.422,0.526,0.554,0.488,0.344,0.862,0.851,0.647,0.434,0.456,0.375,0.427,0.323,1.07,1.06,0.867,0.461
NCI-H1650,0.893,0.966,0.881,0.717,0.323,0.427,0.46,0.442,0.558,0.591,0.456,0.523,0.503,0.56,0.545,0.594,1.17,1.27,1.17,0.856
NCI-H1651,0.92,0.988,0.964,0.727,0.562,0.602,0.622,0.447,0.675,0.695,0.618,0.507,0.572,0.504,0.562,0.509,1.15,1.2,1.05,0.864
NCI-H1666,0.986,0.976,0.954,0.93,0.718,0.686,0.733,0.626,0.866,0.843,0.777,0.705,0.481,0.443,0.404,0.4,0.934,0.956,1.07,0.693
NCI-H1734,0.724,1.07,0.945,0.821,0.501,0.501,0.56,0.471,–,0.633,0.55,0.503,0.458,0.523,0.489,0.416,0.802,0.902,0.86,0.735
NCI-H1755,1,1.05,0.944,0.953,0.667,0.725,0.679,0.699,0.552,0.675,0.683,0.629,0.341,0.449,0.421,0.415,0.996,0.997,1.01,0.79
NCI-H1792,0.874,0.958,0.789,0.62,0.564,0.523,0.506,0.457,0.636,0.661,0.667,0.524,0.251,0.289,0.317,0.256,0.611,0.673,0.587,0.377
NCI-H1793,0.825,0.747,0.762,0.642,0.449,0.571,0.487,0.422,0.295,0.225,0.306,0.244,0.344,0.401,0.313,0.301,0.49,0.573,0.469,0.325
NCI-H1915,0.863,1.03,0.906,0.792,0.243,0.252,0.263,0.265,0.542,0.683,0.552,0.525,0.732,0.903,0.835,0.77,0.745,0.822,0.777,0.69
NCI-H1944,0.862,0.993,0.928,0.818,0.391,0.489,0.414,0.441,0.35,0.449,0.364,0.365,–,0.37,0.34,0.344,–,1.01,0.975,0.924
NCI-H1975,0.919,0.965,0.87,0.82,0.375,0.383,0.351,0.365,0.721,0.705,0.584,0.534,0.274,0.274,0.296,0.244,1.16,1.32,0.91,0.934
NCI-H1993,0.902,0.967,0.838,0.635,0.563,1.13,0.357,0.613,0.556,0.522,0.531,0.617,0.679,0.747,0.769,0.709,0.946,1.01,0.838,0.695
NCI-H2009,0.964,1.01,0.92,0.701,0.339,0.363,0.434,0.391,0.58,0.627,0.566,0.486,0.753,0.87,0.724,0.763,1.11,1.13,1.09,0.847
NCI-H2023,0.901,1.06,0.988,0.841,0.218,0.223,0.236,0.213,0.362,0.406,0.385,0.331,0.209,0.226,0.252,0.231,1,1,1.04,0.804
NCI-H2085,0.96,0.967,0.97,0.852,0.542,0.512,0.572,0.431,0.644,0.709,0.602,0.508,0.407,0.568,0.481,0.486,1.1,1.05,1.05,0.846
